Consider 26 compounds from patent publication US11370774B2, “Substituted benzofuran, benzopyrrole, benzothiophene, and structurally related complement inhibitors” (BioCryst Pharmaceuticals, Inc., priority 2018, dated 2022).

Sequence of Factor D (P00746 26-253): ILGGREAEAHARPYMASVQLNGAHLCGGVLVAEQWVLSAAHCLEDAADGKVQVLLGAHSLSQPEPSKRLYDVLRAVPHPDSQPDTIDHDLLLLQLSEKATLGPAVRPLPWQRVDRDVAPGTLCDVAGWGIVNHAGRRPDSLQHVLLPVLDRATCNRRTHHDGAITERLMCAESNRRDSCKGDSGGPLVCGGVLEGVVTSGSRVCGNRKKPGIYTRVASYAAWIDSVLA

The target of the experiment is Factor D (Homo sapiens (Human), UniProt P00746). Briefly: Factor D esterolytic assay (Z-Lys-SBzl substrate, DTNB, 405 nm). Particulars: Z-Lys-SBzl 1.29 mM, pH 7.5, 10% DMSO, tested a minimum of three times, read-out: Measured Ki (IC50) Value for Compounds: IC50. The format is biochemical. A digest of the protocol:
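Human Factor D ([…]) with 1.29 mM Z-Lys-SBzl in 100 mM HEPES, 500 mM NaCl, pH 7.5, 10% DMSO; substrate added immediately or after room-temperature preincubation. Released thiol reacted with DTNB, rate followed at 405 nm for 600 sec, 690 nm background subtracted. IC50 from percent inhibition versus uninhibited rate, n≥3.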
In the case of `NCc1cccc(-c2cc(COc3ccccc3CC(=O)O)cc3c(C(F)(F)F)coc23)c1` [Compound 154g, 2-(2-((7-(3-(aminomethyl)phenyl)-3-(trifluoromethyl)benzofuran-5-yl)methoxy)phenyl)acetic acid], the IC50 is under 1 µM.

As to `NCc1cc(-c2cc(COc3ccccc3CC(=O)O)cc3c2ccn3CC2CC2)ccn1` [Compound 155c, 2-(2-((4-(2-(aminomethyl)pyridin-4-yl)-1-(cyclopropylmethyl)-1H-indol-6-yl)methoxy)phenyl)acetic acid], the IC50 is under 1 µM.

In the case of `NCc1cccc(-c2cc(COc3ccccc3CC(=O)O)cc3[nH]ncc23)c1` [Compound 156b, 2-(2-((4-(3-(aminomethyl)phenyl)-1H-indazol-6-yl)methoxy)phenyl)acetic acid], the 50% inhibitory concentration (IC50) is under 1 µM.

`NCc1cccc(-c2nc(C(=O)Nc3cccnc3CC(=O)O)c3cccn3n2)c1` [Compound 157d, 2-(3-(2-(3-(aminomethyl)phenyl)pyrrolo[2,1-f][1,2,4]triazine-4-carboxamido)pyridin-2-yl)acetic acid]: the IC50 is over 10 µM.

Consider `NCc1cccc(-c2cc(C(=O)Nc3ccccc3CC(=O)O)cc3cc[nH]c23)c1` [Compound 158c, 2-(2-(7-(3-(aminomethyl)phenyl)-1H-indole-5-carboxamido)phenyl)acetic acid], for which the concentration for half-maximal inhibition (IC50) lay within 1 to 10 µM.

Consider `NCc1cccc(-c2cc(COc3ccccc3CC(=O)O)cc3nncn23)c1` [Compound 159f, 2-(2-((5-(3-(aminomethyl)phenyl)-[1,2,4]triazolo[4,3-a]pyridin-7-yl)methoxy)phenyl)acetic acid], for which the IC50 lay in the range of 1 to 10 µM.

For `NCc1cccc(-c2cc(C(=O)Nc3ccccc3CC(=O)O)cc3c2CCC3)c1` [Compound 160e, 2-(2-(7-(3-(aminomethyl)phenyl)-2,3-dihydro-1H-indene-5-carboxamido)phenyl)acetic acid], the IC50 was under 1 µM.

Take `Cc1ccc2c(C(=O)Nc3ccccc3CC(=O)O)nc(-c3cccc(CN)c3F)nn12` [Compound 161e, 2-(2-(2-(3-(aminomethyl)-2-fluorophenyl)-7-methylpyrrolo[2,1-f][1,2,4]triazine-4-carboxamido)phenyl)acetic acid]: the IC50 is under 1 µM.

For `Cc1ccc(OCc2cc(-c3cccc(CN)c3)c3occc3c2)c(CC(=O)O)c1` [Compound 162e, 2-(2-((7-(3-(aminomethyl)phenyl)benzofuran-5-yl)methoxy)-5-methylphenyl)acetic acid], the IC50 was under 1 µM.

Take `NCc1cccc(-c2cc(COc3ccncc3CC(=O)O)cc3ccoc23)c1` [Compound 163d, 2-(4-((7-(3-(aminomethyl)phenyl)benzofuran-5-yl)methoxy)pyridin-3-yl)acetic acid]: the concentration for half-maximal inhibition (IC50) was under 1 µM.

For the compound `NCc1cccc(-c2cc(COc3ccccc3CC(=O)O)cc3nn(CC4CC4)cc23)c1F` [Compound 164e, 2-(2-((4-(3-(aminomethyl)-2-fluorophenyl)-2-(cyclopropylmethyl)-2H-indazol-6-yl)methoxy)phenyl)acetic acid], the half-inhibitory concentration (IC50) was under 1 µM.

On to `Cc1cccc(CC(=O)O)c1NC(=O)c1cc(-c2cccc(CN)c2)c2occc2c1` [Compound 165f, 2-(2-(7-(3-(aminomethyl)phenyl)benzofuran-5-carboxamido)-3-methylphenyl)acetic acid], for which the IC50 is under 1 µM.

On to `NCc1cccc(-c2cc(COc3ccccc3CC(=O)O)cc3nc[nH]c23)c1` [Compound 167e, 2-(2-((7-(3-(aminomethyl)phenyl)-1H-benzo[d]imidazol-5-yl)methoxy)phenyl)acetic acid], for which the IC50 was under 1 µM.

On to `NCc1cc(-c2cc(COc3ccccc3CC(=O)O)nc3ccoc23)ccn1` [Compound 168c, 2-(2-((7-(2-(aminomethyl)pyridin-4-yl)furo[3,2-b]pyridin-5-yl)methoxy)phenyl)acetic acid], for which the IC50 is under 1 µM.

For `NCc1cccc(-c2cc(COc3ccccc3CC(=O)O)cc3cc(Cl)oc23)c1` [Compound 169f, 2-(2-((7-(3-(aminomethyl)phenyl)-2-chlorobenzofuran-5-yl)methoxy)phenyl)acetic acid], the IC50 is under 1 µM.

For `NCc1nccc(-c2cc(COc3ccccc3CC(=O)O)cc3c2ccn3CC2CC2)c1F` [Compound 170b, 2-(2-((4-(2-(aminomethyl)-3-fluoropyridin-4-yl)-1-(cyclopropylmethyl)-1H-indol-6-yl)methoxy)phenyl)acetic acid], the IC50 was under 1 µM.

On to `NCc1nccc(-c2cc(COc3ccccc3CC(=O)O)c(F)c3ccoc23)c1F` [Compound 171c, 2-(2-((7-(2-(aminomethyl)-3-fluoropyridin-4-yl)-4-fluorobenzofuran-5-yl)methoxy)phenyl)acetic acid], for which the IC50 is under 1 µM.

For the compound `NCc1cc(-c2cc(COc3ccccc3CC(=O)O)c(F)c3ccoc23)ccn1` [Compound 172b, 2-(2-((7-(2-(aminomethyl)pyridin-4-yl)-4-fluorobenzofuran-5-yl)methoxy)phenyl)acetic acid], the IC50 was under 1 µM.

Regarding `NCc1cccc(-c2cc(COc3ccccc3CC(=O)O)cc3c(C(F)(F)F)coc23)c1F` [Compound 173b, 2-(2-((7-(3-(aminomethyl)-2-fluorophenyl)-3-(trifluoromethyl)benzofuran-5-yl)methoxy)phenyl)acetic acid], the IC50 is under 1 µM.

Turning to `NCc1nccc(-c2cc(COc3ccccc3CC(=O)O)cc3occc23)c1F` [Compound 174c, 2-(2-((4-(2-(aminomethyl)-3-fluoropyridin-4-yl)benzofuran-6-yl)methoxy)phenyl)acetic acid], the concentration for half-maximal inhibition (IC50) is under 1 µM.

In the case of `NCc1cc(-c2cc(COc3ccccc3CC(=O)O)cc3c(C(F)(F)F)coc23)ccn1` [Compound 175c, 2-(2-((7-(2-(aminomethyl)pyridin-4-yl)-3-(trifluoromethyl)benzofuran-5-yl)methoxy)phenyl)acetic acid], the IC50 was under 1 µM.

For the compound `Nc1n[nH]c2c(-c3cc(COc4ccccc4CC(=O)O)cc4ccoc34)cccc12` [Compound 176c, 2-(2-((7-(3-amino-1H-indazol-7-yl)benzofuran-5-yl)methoxy)phenyl)acetic acid], the 50% inhibitory concentration (IC50) lay within 1 to 10 µM.

Take `NCc1cccc(-c2cc(COc3ccccc3CC(=O)O)cc3c2CCC3)c1` [Compound 177f, 2-(2-((7-(3-(aminomethyl)phenyl)-2,3-dihydro-1H-inden-5-yl)methoxy)phenyl)acetic acid]: the IC50 was under 1 µM.

In the case of `NCc1cccc(-c2cc(COc3ccccc3CC(=O)O)cc3cc(CCO)oc23)c1` [Compound 178g, 2-(2-((7-(3-(aminomethyl)phenyl)-2-(2-hydroxyethyl)benzofuran-5-yl)methoxy)phenyl)acetic acid], the IC50 is under 1 µM.

As to `NCc1cccc(-c2cc(COc3ccccc3CC(=O)O)cc3cc(CCO)oc23)c1F` [Compound 179b, 2-(2-((7-(3-(aminomethyl)-2-fluorophenyl)-2-(2-hydroxyethyl)benzofuran-5-yl)methoxy)phenyl)acetic acid], the IC50 is under 1 µM.

Regarding `Nc1noc2c(-c3cc(COc4ccccc4CC(=O)O)cc4ccoc34)cccc12` [Compound 180e, 2-(2-((7-(3-aminobenzo[d]isoxazol-7-yl)benzofuran-5-yl)methoxy)phenyl)acetic acid], the IC50 is under 1 µM.
